According to the METLIN SMRT retention time set (Domingo-Almenara et al. 2019):

Experiment: gradient 5% acetonitrile 3 min, to 50% in 2 min, to 85% in 15 min, held 3 min, 100 µL/min
Details: column: Zorbax Extend-C18 2.1 x 50 mm; eluents: water / acetonitrile, 0.1% formic acid
How it was run: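 Pure standards were analyzed in mixtures of ~100 molecules using HPLC coupled to a quadrupole time-of-flight mass spectrometer, in both positive and negative ionization mode. Separation used a Zorbax Extend-C18 column (2.1 × 50 mm, 1.8 μm) at 100 μL/min, with water and acetonitrile each containing 0.1% formic acid. Dead and dwell volumes were 40 μL and 900 μL, and data were collected over 3 months. Retention time was read from computationally picked adduct peaks, each inspected manually.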

With `Cc1ccc(-n2nc3c(N4CCCC(C(=O)NCCN5CCOCC5)C4)nnc(C)c3c2C)cc1` (stereo not drawn) the RP-LC retention time was 589 s.
`CCCc1c(C(=O)O)nnn1-c1cccc(Cl)c1` showed an RP-LC retention time of 783 s.
`COCCNC(=O)C1(C)Cn2nc(-c3ccco3)cc2C(=O)N1c1ccc(OC)c(Cl)c1` (stereo not drawn) gave an RP-LC retention time of 776 s.
Compound `O=C(NCc1ccccc1F)c1cn(-c2cc(N3CCOCC3)ncn2)cn1` has an RP-LC retention time of 758 s.
`O=S(=O)(c1cccn2c(SCc3ccncc3)nnc12)N1CCN(c2ccc(F)cc2)CC1` gave an RP-LC retention time of 663 s.
`CCn1cc(S(=O)(=O)N2CCCC2c2nncn2Cc2ccncc2)cn1` (stereo not drawn) gave an RP-LC retention time of 553 s.
`CC(C)c1noc(-c2cccnc2N2CCCN(Cc3ccccc3Cl)CC2)n1` showed an RP-LC retention time of 723 s.
`CC(C)Cn1c(=O)c(C(=O)NCc2ccc(N3CCCCC3)cc2)nc2cccnc21` gave an RP-LC retention time of 666 s.
Work on `Cc1ccc(NC(=O)Cn2nc3nc(N4CCSCC4)ccn3c2=O)cc1C` yielded an RP-LC retention time of 754 s.
Compound `CCOc1ccc(NC(=O)N2CC(=O)N(CC(=O)N3CCC(C(N)=O)CC3)c3ccccc32)cc1` has an RP-LC retention time of 660 s.
For `Cn1c(=O)n([C@H]2CCN(S(=O)(=O)c3ccccc3Cl)C2)c2ncccc21`, the RP-LC retention time was 840 s.
`Cn1nc(C(=O)N2CCCN(c3cc(-c4ccccc4)[nH]n3)CC2)c2ccccc21` showed an RP-LC retention time of 700 s.
Compound `Nc1c(CC(=O)O)cccc1C(=O)c1ccc(Br)cc1` has an RP-LC retention time of 909 s.
In the case of `CCn1cnc(S(=O)(=O)N2CCCC(C(=O)NCc3ccc(F)cc3)C2)c1` (stereo not drawn), the RP-LC retention time is reported as 712 s.
`Cc1ccc(-n2ncc3c(N4CCN(CCO)CC4)ncnc32)cc1Cl` gave an RP-LC retention time of 651 s.
In the case of `CC(C)NC(=O)c1ccc2c(c1)nc(CN1CCN(C(=O)NC3CCCCC3)CC1)n2C`, the RP-LC retention time is reported as 577 s.
Compound `Cn1cnc(S(=O)(=O)N2CCC(Oc3ccc(-c4noc(C5CC5)n4)cc3)C2)c1` (stereo not drawn) has an RP-LC retention time of 788 s.
With `Cc1cc(N2CCC(C)CC2)n2nc(CN3CCN(c4ccccn4)CC3)nc2n1` the RP-LC retention time was 599 s.
Compound `CCCNC(=O)C1CCN(c2ccc(SCC(=O)Nc3ccc(F)c(F)c3)nn2)CC1` has an RP-LC retention time of 665 s.
With `COc1cc2c(cc1OC)[C@@H](C(=O)N(C)c1ccc(Cl)cc1)[C@@H]1CCCCN1C2=O` the RP-LC retention time was 719 s.
With `FC(F)(F)c1ccc(CN2CCN(c3cnn4cnnc4c3)CC2)cc1` the RP-LC retention time was 594 s.
Compound `O=C(Cn1nc2c3cc(-c4ccc(Cl)cc4)nn3ccn2c1=O)Nc1cc(F)ccc1F` has an RP-LC retention time of 1020 s.
For `COc1ccc2c(CCNc3nc(-c4ccc(C5CCCCC5)cc4)cs3)c[nH]c2c1`, the RP-LC retention time was 1250 s.
For `CCCN(C)C(=O)c1ccc2nc(-c3ccc(C)cc3)cn2c1`, the RP-LC retention time was 641 s.
For `O=C(NCc1ccco1)c1ccc(Cn2nc(N3CCN(c4ccc(F)cc4)CC3)ccc2=O)o1`, the RP-LC retention time was 820 s.
Compound `Cc1cc(C)cc(C(=O)N2CCC3(CC2)NC(=O)c2cc(Cl)ccc2N3C)c1` has an RP-LC retention time of 850 s.
Work on `Cc1ccccc1CNS(=O)(=O)c1cc2c(s1)CCN(C(=O)C1CCC1)C2` yielded an RP-LC retention time of 942 s.
For `O=C(Cc1csc(Nc2ncccn2)n1)NCC(F)(F)F`, the RP-LC retention time was 626 s.
For `CCC(=O)Nc1ccc(-n2cnc(C(=O)NCC(C)C)c2)nc1`, the RP-LC retention time was 667 s.
With `CCC(NC(=O)c1cn2ccc(C)cc2n1)c1ccc(OC)cc1` (stereo not drawn) the RP-LC retention time was 707 s.
`Cn1nccc1-c1cccc(-c2noc(COc3ccc(Cl)cc3)n2)c1` showed an RP-LC retention time of 1120 s.
For `CCOc1cccc(-c2noc(-c3nnn4c3COC(c3ccc(F)cc3)C4)n2)c1` (stereo not drawn), the RP-LC retention time was 1190 s.
`COc1ccc(Cl)cc1S(=O)(=O)N1CCC(C(=O)NCCc2csc(C)n2)CC1` showed an RP-LC retention time of 732 s.
In the case of `Cc1ccn2c(Nc3ccccc3C)c(-c3ccc(N(C)C)cc3)nc2c1`, the RP-LC retention time is reported as 809 s.
Work on `COc1ccc2c(c1)c(CN1CCC(C(=O)NCCC3=CCCCC3)CC1)cn2C` yielded an RP-LC retention time of 730 s.
`CCCN1CCCCc2cc(C(=O)NC3CCS(=O)(=O)C3)sc21` (stereo not drawn) showed an RP-LC retention time of 884 s.
`COc1ccccc1CNC(=O)C1CCCN(c2ncnc3c2oc2ccccc23)C1` (stereo not drawn) showed an RP-LC retention time of 746 s.
For `Cc1ccc(-c2nc(-c3ccnc(N4CCOCC4)c3)no2)cc1`, the RP-LC retention time was 1050 s.
For `O=C(Nc1cccc(-c2ccn[nH]2)c1)c1ccco1`, the RP-LC retention time was 631 s.
Compound `O=C(NCCc1csc(-c2ccccc2)n1)C1CCN(C(=O)CCc2ccccc2)CC1` has an RP-LC retention time of 859 s.
`CC(=O)N1CCCC1c1nc2ccccc2n1CC(=O)N1CCC(C)CC1` (stereo not drawn) showed an RP-LC retention time of 567 s.
With `COc1ccc(N2CCN(Cc3nc(-c4ccc(N5CCCC(C)C5)nc4)no3)CC2)cc1` (stereo not drawn) the RP-LC retention time was 1020 s.
In the case of `N#Cc1ccc(-c2nc(-c3ccc4c(c3)nnn4CCC(=O)N3CCOCC3)no2)cc1`, the RP-LC retention time is reported as 786 s.
In the case of `Cc1cccc(-c2noc(-c3cccnc3N3CCN(c4ccccc4)CC3)n2)c1`, the RP-LC retention time is reported as 1400 s.
For `O=C(NC1CC1)c1cc(-c2cccs2)n(C2CCS(=O)(=O)C2)n1` (stereo not drawn), the RP-LC retention time was 710 s.
Work on `O=S(=O)(Nc1ccccc1)c1cccc(-c2nc(-c3ccccc3)no2)c1` yielded an RP-LC retention time of 1210 s.
`CC1=C(c2ccccc2)S(=O)(=O)N=C1N1CCCN(C(=O)c2ccc(C)s2)CC1` gave an RP-LC retention time of 821 s.
Compound `Cc1cc(C)n(-c2cc(Nc3ccccc3)ncn2)n1` has an RP-LC retention time of 1010 s.
With `COc1ccc(-c2noc(C3CC(=O)N(c4ccc(F)cc4)C3)n2)cc1OC` (stereo not drawn) the RP-LC retention time was 808 s.
Compound `CCCNC(=O)C1CCCN(S(=O)(=O)c2cc(-c3noc(CC)n3)cs2)C1` (stereo not drawn) has an RP-LC retention time of 841 s.
Work on `O=C(Cn1nc(-c2cccnc2)ccc1=O)Nc1nc2ccccc2[nH]1` yielded an RP-LC retention time of 528 s.
Work on `CCOC(=O)c1ccc2nc(NC(=O)C3CCCCN3S(C)(=O)=O)sc2c1` (stereo not drawn) yielded an RP-LC retention time of 839 s.
With `COc1ccc(OC)c(S(=O)(=O)N2CCCC(C(=O)Nc3cccc(C)c3)C2)c1` (stereo not drawn) the RP-LC retention time was 952 s.
In the case of `CC(CC(=O)O)CC(=O)Nc1nc(-c2ccccc2)c(-c2ccccc2)s1` (stereo not drawn), the RP-LC retention time is reported as 927 s.
Compound `Cc1ccccc1CNC(=O)C1CCN(Cc2cn(C)c3ccc(Cl)cc23)CC1` has an RP-LC retention time of 740 s.
With `CCOC(=O)c1nc(SC)n(C)c1C(=O)OCC` the RP-LC retention time was 834 s.
`COc1ccc(OC)c(NS(=O)(=O)c2cccs2)c1` gave an RP-LC retention time of 777 s.
`O=C(NCc1ccc(F)c(Cl)c1)C1CCCN(c2cnc3nccnc3c2)C1` (stereo not drawn) showed an RP-LC retention time of 757 s.
`O=C(Nc1cccc(F)c1)C1CC(=O)N(CCc2c[nH]c3ccc(Cl)cc23)C1` (stereo not drawn) showed an RP-LC retention time of 844 s.
`COc1ccc(S(=O)(=O)N2CCc3c(C(=O)NCCN(C)C)cccc32)cc1` gave an RP-LC retention time of 635 s.
For `CON(C)C(=O)N1N=C(c2cc(F)ccc2F)S[C@@]1(CCCN)c1ccccc1`, the RP-LC retention time was 792 s.
Compound `Cc1nc(OCC(=O)NC2CCCCC2)c2c(-c3cccc(F)c3)noc2n1` has an RP-LC retention time of 990 s.
For `O=C(NCC1CCOCC1)Nc1ccc(Cl)cc1F`, the RP-LC retention time was 764 s.
Compound `CCOC(=O)Cc1ccc(NC(=O)N2CCCn3nc(-c4cccs4)cc3C2)cc1` has an RP-LC retention time of 849 s.
For `Cc1cc(C)c(NC(=O)C23CCC(C)(C(=O)O2)C3(C)C)c([N+](=O)[O-])c1` (stereo not drawn), the RP-LC retention time was 884 s.
In the case of `Oc1ccc(Nc2nc(-c3ccccc3)cs2)cc1`, the RP-LC retention time is reported as 818 s.
`CCc1nnc(-c2cccn2CC(=O)NCc2cccc(Br)c2)o1` showed an RP-LC retention time of 835 s.
In the case of `O=C(Cn1cccc(-c2nc(-c3ccccc3)no2)c1=O)Nc1cc(C(F)(F)F)ccc1Cl`, the RP-LC retention time is reported as 1040 s.
`Nc1ccc2c(c1)nnn2-c1ccccc1` showed an RP-LC retention time of 708 s.
`COC(=O)c1cc(C)nc2c1c(=O)n(Cc1nc(-c3ccc(OC)c(OC)c3)oc1C)c(=O)n2C` showed an RP-LC retention time of 964 s.
With `CCc1ccccc1NC(=O)C1CCN(S(=O)(=O)c2c(C)[nH]c(C)c2C(=O)N2CCCC2)CC1` the RP-LC retention time was 726 s.
Work on `CC(=O)c1ccc(NC(=O)c2cc(-c3cccnc3)nc3ccccc23)cc1` yielded an RP-LC retention time of 732 s.
With `CCN1C(=O)COc2ccc(-c3csc(NC(=O)c4cccc(C)c4)n3)cc21` the RP-LC retention time was 1050 s.
For `CCOC(=O)c1noc2nc(C)nc(Nc3ccccc3)c12`, the RP-LC retention time was 1010 s.
`CCNC(=O)N1CCc2c(c(-c3nc(-c4ccccc4)no3)nn2C)C1` gave an RP-LC retention time of 787 s.
With `Cc1csc(-c2cc(S(=O)(=O)NCC3CCCO3)cn2CC(=O)N2CCCCC2)n1` (stereo not drawn) the RP-LC retention time was 831 s.
Compound `Cc1ccc(NC(=O)C2CCCN(c3nc4ccsc4c(=O)n3-c3ccc(C)cc3)C2)cc1` (stereo not drawn) has an RP-LC retention time of 996 s.
Work on `CC(=O)N1CCc2sc(S(=O)(=O)N3CCN(c4ccccc4F)CC3)cc2C1` yielded an RP-LC retention time of 905 s.
Compound `O=C([C@@H]1C[C@H](Oc2cccnc2)CN1C(=O)C1CCCC1)N1CCCC1` has an RP-LC retention time of 577 s.
In the case of `O=C(Cc1cccc(F)c1)N1CCCCC1c1nncn1CC1CC1` (stereo not drawn), the RP-LC retention time is reported as 677 s.
`CCCNC(=O)CCc1nc2ccccc2n(CC(=O)Nc2ccccc2C(=O)OC)c1=O` gave an RP-LC retention time of 843 s.
With `O=C(CSc1nnc(CNC(=O)c2ccc(F)cc2)o1)NCc1ccco1` the RP-LC retention time was 647 s.
`O=C(NCc1cccc(C(F)(F)F)c1)c1cn2nc(Cl)ccc2n1` showed an RP-LC retention time of 908 s.
`Cn1cnc2c(C(=O)NC3CCCCCC3)nn(-c3ccc(Cl)cc3)c2c1=O` gave an RP-LC retention time of 929 s.
In the case of `CNC(=O)C1CCN(C(=O)Nc2ccc(NC(=O)Nc3ccc(C)cc3C)cc2)CC1`, the RP-LC retention time is reported as 673 s.
`CCn1c(C(=O)N2CCC(C(=O)NCc3cccc(OC)c3)CC2)cc2occc21` showed an RP-LC retention time of 795 s.
With `COc1ccc(OC)c(NC(=O)CN2C(=O)COc3ccc(C(=O)N4CCCC4)cc32)c1` the RP-LC retention time was 682 s.
Work on `CCCN1CCN(CCCNC(=O)c2sc3ncccc3c2-n2cccc2)CC1` yielded an RP-LC retention time of 574 s.
